Assay results reported in patent US20120083501A1, “COMPOUNDS FOR TREATING NEURODEGENERATIVE DISEASES” (priority 2010, published 2012).
pIC50: −log10 of the molar value.

Target: T1, BACE1 (Homo sapiens, UniProt P56817)
T1 construct: endogenous in cells; host or cells: HEK-293 cells stably transfected with wild type APP695
Experiment: Cellular BACE1 Inhibition Assay (in vitro cellular Amyloidβ 1-40 production, HTRF immunoassay)
Format: cell-based
Conditions: inhibition of Amyloidβ 1-40 production; HEK-293 cells stably transfected with wild type APP695; 48 hours incubation; single assay or mean of multiple assays
Description: The BACE inhibition properties of the compounds of the invention may be determined by the following in vitro cellular Amyloidβ 1-40 production assay.
Inhibition of Amyloidβ 1-40 production was determined by incubating cells with compound for 48 hours and quantifying the level of Amyloidβ 1-40 using an homogeneous time-resolved fluorescence (“HTRF”) immunoassay.
Materials and Methods: HEK-293 cells stably transfected with a DNA construct containing the coding sequence for the wild type APP695 sequence were grown in Dulbecco's Modified Eagle Medium (“DMEM”) supplemented with 10% fetal bovine serum, penicillin/streptomycin and 150 μg/mL G418. Cells were plated in 96-well plates at 35,000 cells/well and allowed to attach for 8-12 hours. Media was changed to DMEM supplemented with 10% fetal bovine serum, penicillin/streptomycin 15 minutes prior to compound addition. Diluted compounds were then added at a final concentration of 0.5% DMSO. After 48 hours, 4 μL of media from each well was added to a corresponding well of a 384 well plate (Perkin Elmer Cat#6008280) containing the HTRF reagents. HTRF reagents were obtained from the CisBio Amyloidβ 1-40 peptide assay kit (Cat# 62B40PEC) and were prepared as follows anti-peptide β (1-40)-Cryptate and anti-peptide β (1-40)-XL655 were stored in 2 plate aliquots at −80° C. Diluent and Reconstitution buffer were stored at 4° C. Aliquots of the two antibodies were diluted 1:100 with Reconstitution buffer, and this mixture was diluted 1:2 with Diluent. 12 μL of the reagent mixture was added to the required wells of the 384 well assay plate. The assay plate was incubated at 4° C. for 17 hours and then analyzed for fluorescence at 665 and 620 nm. The reported IC50 below may be from a single assay or the mean of multiple assays.

T1 sequence (P56817 46-501): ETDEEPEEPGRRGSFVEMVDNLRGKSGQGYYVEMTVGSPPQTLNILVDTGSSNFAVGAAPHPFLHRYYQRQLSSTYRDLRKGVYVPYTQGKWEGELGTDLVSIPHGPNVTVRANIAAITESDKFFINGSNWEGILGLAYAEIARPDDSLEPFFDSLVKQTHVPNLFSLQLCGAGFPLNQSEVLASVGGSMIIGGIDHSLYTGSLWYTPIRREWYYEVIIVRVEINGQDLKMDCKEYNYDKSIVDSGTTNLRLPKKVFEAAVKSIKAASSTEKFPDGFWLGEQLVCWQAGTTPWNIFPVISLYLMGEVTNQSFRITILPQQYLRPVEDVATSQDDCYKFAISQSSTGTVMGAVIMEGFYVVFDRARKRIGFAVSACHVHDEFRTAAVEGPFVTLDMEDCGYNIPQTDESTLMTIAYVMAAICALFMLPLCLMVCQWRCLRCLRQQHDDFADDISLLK

pIC50 | SMILES
8.82 | CN1C(=O)[C@]2(N=C1N)c1cc(-c3cncc(Cl)c3)ccc1O[C@H]1CCCO[C@@H]12 [Example 78, (4S,4a′S,10a′R)-2-amino-8′-(5-chloropyridin-3-yl)-1-methyl-3′,4′,4a′,10a′-tetrahydro-2′H-spiro[imidazole-4,10′-pyrano[3,2-b]chromen]-5(1H)-one]
8.89 | CN1C(=O)C2(N=C1N)c1cc(-c3cncc(Cl)c3)ccc1OC1CC(O)CCC12 (stereo not shown) [Example 3, 2-amino-7′-(5-chloropyridin-3-yl)-3′-hydroxy-1-methyl-1′,2′,3′,4′,4a′,9a′-hexahydrospiro[imidazole-4,9′-xanthen]-5(1H)-one]
7.29 | CCOC1CCC2C(C1)Oc1ccc(-c3cc(F)cc(Cl)c3)cc1C21N=C(N)N(C)C1=O (stereo not shown) [Example 28, 2-amino-7′-(3-chloro-5-fluorophenyl)-3′-ethoxy-1-methyl-l′,2′,3′,4′,4a′,9a′-hexahydrospiro[imidazole-4,9′-xanthen]-5(1H)-one]
7.32 | CN1C(=O)C2(N=C1N)c1cc(-c3cccnc3F)ccc1O[C@H]1CCCC[C@H]12 (relative stereo) [Example 14, cis 2-amino-7′-(2-fluoropyridin-3-yl)-1-methyl-1′,2′,3′,4′,4a′,9a′-hexahydrospiro[imidazole-4,9′-xanthen]-5(1H)-one]
7.74 | CN1C(=O)[C@]2(N=C1N)c1cc(-c3cccnc3F)ccc1O[C@@]1(C)CCCO[C@H]12 (racemic) [Example 55, (4S*,4a′S*,10a′S*)-2-amino-8′-(2-fluoropyridin-3-yl)-1,4a′-dimethyl-3′,4′,4a′,10a′-tetrahydro-2′H-spiro[imidazole-4,10′-pyrano[3,2-b]chromen]-5 (1H)-one]
8.21 | CN1C(=O)C2(N=C1N)c1cc(-c3cncc(C(F)(F)F)c3)ccc1OC1CC(O)CCC12 (stereo not shown) [Example 5, 2-amino-3′-hydroxy-1-methyl-7′-(5-(trifluoromethyl)pyridin-3-yl)-1′,2′,3′,4′,4a′,9a′-hexahydrospiro[imidazole-4,9′-xanthen]-5(1H)-one]
6.57 | CN1C(=O)C2(N=C1N)c1cc(-c3cccc(Cl)c3)ccc1OC1CC(F)(F)CCC12 (stereo not shown) [Example 35, 2-amino-7′-(3-chlorophenyl)-3′,3′-difluoro-1-methyl-1′,2′,3′,4′,4a′,9a′-hexahydrospiro[imidazole-4,9′-xanthen]-5(1H)-one]
8.37 | CN1C(=O)[C@]2(N=C1N)c1cc(-c3cncc(C#N)c3)ccc1O[C@H]1CCCO[C@@H]12 [Example 79, 5-((4S,4a′S,10a′R)-2-amino-1-methyl-5-oxo-1,3′,4′,4a′,5,10a′-hexahydro-2′H-spiro[imidazole-4,10′-pyrano[3,2-b]chromen]-8′-yl)nicotinonitrile]
7.49 | CN1C(=O)C2(N=C1N)c1cc(-c3cncc(Cl)c3)ccc1O[C@H]1CCCC[C@H]12 (relative stereo) [Example 33, cis 2-amino-7′-(5-chloropyridin-3-yl)-1-methyl-1′,2′,3′,4′,4a′,9a′-hexahydrospiro[imidazole-4,9′-xanthen]-5(1H)-one]
6.10 | COc1ccc2c(c1)C1(N=C(N)N(C)C1=O)[C@H]1COCC[C@@H]1C2 (stereo partly drawn) [Example 107, (4aS,10aS)-2′-amino-8-methoxy-1′-methyl-1,3,4,4a,5,10a-hexahydrospiro[benzo[g]isochromene-10,4′-imidazol]-5′(1′H)-one]
